Measured values as given in patent US20200197544A1, “JCV IMAGING METHODS AND COMPOSITIONS” (BIOGEN MA Inc., priority 2017, published 2020).
Entries after “also recorded” stand apart in the source; their conditions may differ.

Tested on: JCV-infected human astrocytes
Experiment: ^3H-FLT uptake in uninfected and JCV-infected human astrocytes (TK1 activity)
Format: cell-based
Conditions: JCV-infected astrocytes compared to uninfected astrocytes; uptake as a measure of TK1 activity
Procedure: The activity of TK1 in uninfected and JCV-infected human astrocytes was determined by analyzing the cellular uptake of ^3H-FLT, a radiolabeled TK1 substrate.

With `Cc1cn([C@H]2C[C@H](F)[C@@H](CO)O2)c(=O)[nH]c1=O` [^3H-FLT] the “^3H-FLT uptake” value was “higher in JCV-infected astrocytes as compared to uninfected astrocytes; also recorded: elevated levels of TK1 activity, as determined by uptake of ^3H-FLT, compared to uninfected cells”.
